Measurements: patent publication US8575135B2 (Gilead Sciences, Inc., priority 2011, dated 2013)
Read-outs that look alike come from different tables or passages of the source.

Legend:
Experiment in all cases: microbe, parasite or virus in culture
[1] = tested on: stable HCV 2a JFH-1 Rluc replicon cells (L31 present in NS5A); type: cell-based; details: Hepatitis C virus
[2] = tested on: stable HCV 1a RLuc replicon cells (genotype 1a H77 replicon); type: cell-based; details: Hepatitis C virus
Procedure: (§1) Evaluation of Cell-Based Anti-HCV Activity:
(§2) Antiviral potency (EC50) was determined using a Renilla luciferase (RLuc)-based HCV replicon reporter assay. […] To perform the assay for genotype 2a (with M31 present in NS5A) or 2b, NS5A chimeric genotype 2a JFH-1 replicons that encodes a RLuc-Neo reporter and either genotype 2a J6 strain NS5A gene or genotype 2b MD2b-1 strain NS5A gene (both with M31 present) respectively, were either transiently transfected (t) into Huh-Lunet cells or were established as stably replicating replicon cells (s) is provided. Either cells were dispensed into 384-well plates for EC50 assays. To perform the assay for genotype 3 and 4, NS5A chimeric genotype 1b Con1 replicons that encodes a Pi-RLuc reporter and either genotype 3a S52 strain NS5A gene or genotype 4a ED43 strain NS5A gene respectively, were transiently transfected (t) into Huh-Lunet cells, which were subsequently dispensed into 384-well plates. Compounds were dissolved in DMSO at a concentration of 10 mM and diluted in DMSO either manually or using an automated pipeting instrument. Serially 3-fold diluted compounds were either manually mixed with cell culture media and added to the seeded cells or directly added to the cells using an automated instrument. […] 72 hours later, cells were lysed and Renilla luciferase activity quantified as recommended by the manufacturer (Promega-Madison, Wis.). Non-linear regression was performed to calculate EC50 values.

[3] = tested on: NS5A chimeric genotype 2a JFH-1 replicon with genotype 2a J6 strain NS5A gene (M31 present); type: cell-based, HCV; details: Hepatitis C virus
Procedure: as §1, §2

[4] = tested on: NS5A chimeric genotype 2a JFH-1 replicon with genotype 2b MD2b-1 strain NS5A gene (M31 present); type: cell-based, HCV; details: Hepatitis C virus
Procedure: as §1, §2

[5] = tested on: NS5A chimeric genotype 1b Con1 replicon with genotype 4a ED43 strain NS5A gene; type: cell-based, HCV; details: Hepatitis C virus
[6] = tested on: NS5A chimeric genotype 1b Con1 replicon with genotype 3a S52 strain NS5A gene; type: cell-based, HCV; details: Hepatitis C virus, read-out: 3a (nM)
Procedure: as §1, §2

| SMILES | EC50 ([1]; read-out: 2a JFH) | EC50 ([1]; read-out: 2a JFH (nM)) | EC50 ([2]; read-out: 1a) | EC50 ([2]; read-out: 1a (nM)) | EC50 ([3]; read-out: 2a J6) | EC50 ([3]; read-out: 2a Jb (t) (nM)) | EC50 ([4]; read-out: 2b) | EC50 ([4]; read-out: 2b (t) (nM)) | EC50 ([5]; read-out: 4a) | EC50 ([5]; read-out: 4a (s) (nM)) | EC50 ([5]; read-out: 4a (t) (nM)) | EC50 ([3]; read-out: 2a J6 (s) (nM)) | EC50 ([4]; read-out: 2b (s) (nM)) | EC50 [6] |
| --- | --- | --- | --- | --- | --- | --- | --- | --- | --- | --- | --- | --- | --- | --- |
| CC[C@@H](C)[C@H](NC(=O)OC)C(=O)N1C[C@@H](COC)C[C@H]1c1ncc(-c2ccc3c(c2)COc2cc4c(ccc5nc([C@@H]6CC[C@H](C)N6C(=O)[C@@H](NC(=O)OC)C(C)C)[nH]c54)cc2-3)[nH]1 [Example OG, Methyl {(2S)-1-[(2S,5S)-2-(9-{2-[(2S,4S)-1-[N-(methoxycarbonyl)-L-alloisoleucyl]-4-(methoxymethyl)pyrrolidin-2-yl]-1H-imidazol-5-yl}-1,11-dihydroisochromeno[4′,3′:6,7]naphtho[1,2-d]imidazol-2-yl)-5-methylpyrrolidin-1-yl]-3-methyl-1-oxobutan-2-yl}carbamate] | < 1 nM | 0.008 nM | < 1 nM | 0.009 nM | < 1 nM | 0.601 nM | < 1 nM | 0.437 nM |  |  |  |  |  |  |
| COC[C@H]1C[C@@H](c2nc3ccc4cc5c(cc4c3[nH]2)OCc2cc(-c3ccc4nc([C@@H]6CCCN6C(=O)[C@@H](NC(=O)OC)C(C)C)[nH]c4c3)ccc2-5)N(C(=O)[C@H](NC(=O)OC)c2ccccc2)C1 [Example MS] | < 1 nM | 0.005 nM | < 1 nM | 0.008 nM | > 5 nM |  | > 5 nM |  | < 1 nM | 0.02 nM | 0.014 nM | 15.6 nM | 9.56 nM |  |
| CC[C@H](C)[C@H](NC(=O)OC)C(=O)N1C[C@@H](COC)C[C@H]1c1ncc(-c2ccc3c(c2)COc2cc4c(ccc5nc([C@@H]6CC[C@H](C)N6C(=O)[C@@H](NC(=O)OC)C(C)C)[nH]c54)cc2-3)[nH]1 [Example OF, Methyl {(2S,3S)-1-[(2S,4S)-2-(5-{2-[(2S,5S)-1-{(2S)-2-[(methoxycarbonyl)amino]-3-methylbutanoyl}-5-methylpyrrolidin-2-yl]-1,11-dihydroisochromeno[4′,3′:6,7]naphtho[1,2-d]imidazol-9-yl}-1H-imidazol-2-yl)-4-(methoxymethyl)pyrrolidin-1-yl]-3-methyl-1-oxopentan-2-yl}carbamate] | < 1 nM | 0.008 nM | < 1 nM | 0.01 nM | < 1 nM | 0.445 nM | < 1 nM | 0.196 nM |  |  |  |  |  |  |
| COC[C@H]1C[C@@H](c2ncc(-c3ccc4c(c3)COc3cc5c(ccc6nc([C@@H]7C[C@H](COC(F)F)CN7C(=O)[C@@H](NC(=O)OC)C(C)C)[nH]c65)cc3-4)[nH]2)N(C(=O)[C@@H](NC(=O)OC)C(C)C)C1 [Example PU, methyl {(2S)-1-[(2S,4S)-2-(5-{2-[(2S,4S)-4-[(difluoromethoxy)methyl]-1-{(2S)-2-[(methoxycarbonyl)amino]-3-methylbutanoyl}pyrrolidin-2-yl]-1,11-dihydroisochromeno[4′,3′:6,7]naphtho[1,2-d]imidazol-9-yl}-1H-imidazol-2-yl)-4-(methoxymethyl)pyrrolidin-1-yl]-3-methyl-1-oxobutan-2-yl}carbamate] | < 1 nM | 0.006 nM | < 1 nM | 0.012 nM | < 1 nM | 0.068 nM | < 1 nM | 0.442 nM |  |  |  |  |  |  |
| CC[C@@H](C)[C@H](NC(=O)OC)C(=O)N1C[C@@H](COC)C[C@H]1c1nc2ccc3cc4c(cc3c2[nH]1)OCc1cc(-c2cnc([C@@H]3CC[C@H](C)N3C(=O)[C@@H](NC(=O)OC)[C@H](C)CC)[nH]2)ccc1-4 [Compound 643] | < 1 nM | 0.013 nM | < 1 nM | 0.015 nM | < 1 nM | 0.206 nM | < 1 nM | 0.607 nM |  |  |  |  |  |  |
| COC(=O)N[C@H](C(=O)N1[C@@H](C)CC[C@H]1c1ncc(-c2ccc3c(c2)COc2cc4c(ccc5nc([C@@H]6CCCN6C(=O)[C@@H](NC(=O)OC)C6CCOCC6)[nH]c54)cc2-3)[nH]1)C(C)C [Compound 602] | < 1 nM | 0.01 nM | < 1 nM | 0.025 nM | < 1 nM | 0.053 nM | < 1 nM | 0.036 nM | < 1 nM | 0.013 nM |  |  | 0.036 nM |  |
| COC(=O)N[C@H](C(=O)N1C[C@@H](COC(F)F)C[C@H]1c1nc2ccc3cc4c(cc3c2[nH]1)OCc1cc(-c2cnc([C@@H]3CC[C@H](C)N3C(=O)[C@@H](NC(=O)OC)C(C)C)[nH]2)ccc1-4)C(C)C [Example PS, methyl {(2S)-1-[(2S,5S)-2-(5-{2-[(2S,4S)-4-[(difluoromethoxy)methyl]-1-{(2S)-2-[(methoxycarbonyl)amino]-3-methylbutanoyl}pyrrolidin-2-yl]-1,11-dihydroisochromeno[4′,3′:6,7]naphtho[1,2-d]imidazol-9-yl}-1H-imidazol-2-yl)-5-methylpyrrolidin-1-yl]-3-methyl-1-oxobutan-2-yl}carbamate] | < 1 nM | 0.004 nM | < 1 nM | 0.005 nM | < 1 nM | 0.077 nM | < 1 nM | 0.113 nM |  |  |  |  |  | 44.4 nM |
| COC(=O)N[C@H](C(=O)N1C[C@@H](COC(F)F)C[C@H]1c1ncc(-c2ccc3c(c2)COc2cc4c(ccc5nc([C@@H]6CC[C@H](C)N6C(=O)[C@@H](NC(=O)OC)C(C)C)[nH]c54)cc2-3)[nH]1)C(C)C [Example PT, methyl {(2S)-1-[(2S,4S)-4-[(difluoromethoxy)methyl]-2-(5-{2-[(2S,5S)-1-{(2S)-2-[(methoxycarbonyl)amino]-3-methylbutanoyl}-5-methylpyrrolidin-2-yl]-1,11-dihydroisochromeno[4′,3′:6,7]naphtho[1,2-d]imidazol-9-yl}-1H-imidazol-2-yl)pyrrolidin-1-yl]-3-methyl-1-oxobutan-2-yl}carbamate] | < 1 nM | 0.007 nM | < 1 nM | 0.007 nM | < 1 nM | 0.383 nM | < 1 nM | 0.182 nM |  |  |  |  |  |  |
| COC(=O)N[C@H](C(=O)N1[C@@H](C)CC[C@H]1c1ncc(-c2ccc3c(c2)COc2cc4c(ccc5nc([C@@H]6CCCN6C(=O)[C@H](N)c6ccccc6)[nH]c54)cc2-3)[nH]1)C(C)C [Example NR, Methyl [(2S)-1-{(2S,5S)-2-[5-(2-{(2S)-1-[(2R)-2-amino-2-phenylacetyl]pyrrolidin-2-yl}-1,11-dihydroisochromeno[4′,3′:6,7]naphtho[1,2-d]imidazol-9-yl)-1H-imidazol-2-yl]-5-methylpyrrolidin-1-yl}-3-methyl-1-oxobutan-2-yl]carbamate] | < 1 nM | 0.006 nM | < 1 nM | 0.026 nM | < 1 nM | 0.118 nM | < 1 nM | 0.017 nM | < 1 nM | 0.007 nM |  |  | 0.017 nM |  |
| COC[C@H]1C[C@@H](c2ncc(-c3ccc4c(c3)COc3cc5c(ccc6nc([C@@H]7CCCN7C(=O)[C@@H](NC(=O)OC)C(C)C)[nH]c65)cc3-4)[nH]2)N(C(=O)[C@H](N)c2ccccc2)C1 [Example OL, Methyl {(2S)-1-[(2S)-2-(9-{2-[(2S,4S)-[(2R)-2-amino-2-phenylacetyl]-4-(methoxymethyl)pyrrolidin-2-yl]-1H-imidazol-5-yl}-1,11-dihydroisochromeno[4′,3′:6,7]naphtho[1,2-d]imidazol-2-yl)pyrrolidin-1-yl]-3-methyl-1-oxobutan-2-yl}carbamate] | < 1 nM | 0.012 nM | < 1 nM | 0.047 nM | < 1 nM | 0.07 nM | < 1 nM | 0.052 nM |  |  |  |  | 0.052 nM |  |
| CC[C@H](C)[C@H](NC(=O)OC)C(=O)N1[C@@H](C)CC[C@H]1c1ncc(-c2ccc3c(c2)COc2cc4c(ccc5nc([C@@H]6C[C@H](COC)CN6C(=O)[C@@H](NC(=O)OC)C(C)C)[nH]c54)cc2-3)[nH]1 [Example OX, Methyl {(2S)-1-[(2S,4S)-2-(9-{2-[(2S,5S)-1-{(2S,3S)-2-[(methoxycarbonyl)amino]-3-methylpentanoyl}-5-methylpyrrolidin-2-yl]-1H-imidazol-5-yl}-1,11-dihydroisochromeno[4′,3′:6,7]naphtho[1,2-d]imidazol-2-yl)-4-(methoxymethyl)pyrrolidin-1-yl]-3-methyl-1-oxobutan-2-yl}carbamate] | < 1 nM | 0.006 nM | < 1 nM | 0.007 nM | < 1 nM | 0.113 nM | < 1 nM | 0.107 nM |  |  |  |  |  |  |
